From patent US6410054B1, “Immediate release eplerenone compositions” (G. D. Searle & Co., priority 1998, dated 2002)

Experiments:
[1] = ADME study of [14C]eplerenone oral solution: plasma, whole blood, saliva pharmacokinetics; assay type: in vivo, humans; details: for Total Radioactivity AUC0-inf (± SEM) / Total Radioactivity Cmax (± SEM): 100 mg [14C]eplerenone oral solution
Procedure: An open-label, single dose study was employed to evaluate the absorption, distribution, metabolism and elimination profile of a single 100 mg dose of an oral solution of eplerenone.
The study employed eight healthy male humans. Each subject received a single 100 mg oral dose of a solution of [^14C]eplerenone (specific activity 0.75 μCi/mg). Plasma, saliva, breath, urine and fecal samples were collected at predetermined intervals and analyzed for sample radioactivity and the concentration of eplerenone and its open lactone ring form. Safety was determined on the basis of laboratory tests, vital signs, and the occurrence and types of adverse events.
The subjects, who underwent an overnight food fast prior to administration of the dose, received at 0800 hours a single 100 mg oral dose of an aqueous oral solution of radiolabeled eplerenone reconstituted in 80 mL of an apple juice/hydroxypropyl-β-cyclodextrin mixture. The subjects swallowed about 200 mL of water one, two and three hours post dosing.
Blood samples were collected at −0.5 (predose), 0.5, 1, 1.5, 2, 2.5, 3, 4, 6, 8, 12, 16, 24, 36, 48, 72 and 96 hours post dose. […] Individual fecal samples were collected beginning immediately after dosing and continuing through 0800 hours on day 8. In addition, one predose fecal sample was provided. Saliva samples were taken at 0.5 hour predose and at 0.5, 1, 2, 4, 6, 12, and 24 hours postdose. Breath samples were taken at 0.5 hour predose and at 1, 2, 3, 4, 6, 8, 12, 24, 36, 48 and 72 hours postdose.

[2] = Single dose study: plasma pharmacokinetics of eplerenone, open lactone ring form, spironolactone; details: for Plasma Concentration Of Eplerenone: -0.25 h (predose); for Oral Clearance: eplerenone in plasma
Procedure: The pharmacokinetics, safety and antialdosterone activity of single 10, 50, 100, 300 and 1000 mg oral doses of eplerenone were evaluated in a single-center, randomized, double-blind, placebo-controlled study.
The study employed seven parallel dose groups of eight healthy male humans.
The eplerenone capsules administered corresponded to the capsules (or combinations of the capsules) disclosed in Examples 4, 5, 7 and 8 above. The placebo was a conventional capsule containing lactose. […] The fludrocortisone used in the study consisted of commercially available fludrocortisone tablets (Florinef®, Squibb BV).
The subjects, who underwent a ten hour food fast prior to administration of the dose, received a single oral dose of one of the study medications together with about 180 mL of water at 0800 hours. […] Each dose of fludrocortisone was administered with 150 mL of water except for the 1.0 mg dose which was administered with 200 mL of water.
The plasma samples collected from subjects dosed with eplerenone were assayed for concentrations of eplerenone and the open lactone ring form of eplerenone. […] A subset of plasma samples was also assayed for testosterone levels. The urine collected was analyzed to determine concentrations and amounts of eplerenone and the open lactone ring form of eplerenone, the amount of sodium and potassium excreted, and the urinary log10 (sodium/potassium) ratio.

[3] = male, human, plasma, 100 mg eplerenone oral solution, single dose

Compound: COC(=O)C1CC2=CC(=O)CCC2(C)C23OC2CC2(C)C(CC[C@@]24CCC(=O)O4)C13 (stereo partly drawn) [eplerenone, methyl hydrogen 9,11α-epoxy-17α-hydroxy-3-oxopregn-4-ene-7α,21-dicarboxylate, γ-lactone]
- concentration of total radioactivity ([1]; 1.5 hour plasma samples, mean): 2390 ng/mL
- Total Radioactivity AUC0-inf (± SEM) ([1]; Plasma): 18400 ± 1200 ng equivalents hr/mL
- Total Radioactivity Cmax (± SEM) ([1]; Plasma): 2490 ± 110 ng equivalents/mL
- Total Radioactivity AUC0-inf (± SEM) ([1]; Saliva): 7960 ± 500 ng equivalents hr/mL
- Total Radioactivity Cmax (± SEM) ([1]; Saliva): 2170 ± 280 ng equivalents/mL
- Total Radioactivity AUC0-inf (± SEM) ([1]; Whole Blood): 12800 ± 800 ng equivalents hr/mL
- Total Radioactivity Cmax (± SEM) ([1]; Whole Blood): 1770 ± 80 ng equivalents/mL
- concentration at 0.5 h ([1]; male, human, plasma, 100 mg oral solution of [14C]eplerenone, 0.5 hours after dosing): 1340 ng/mL
- concentration at 1 h ([1]; male, human, plasma, 100 mg oral solution of [14C]eplerenone, 1.0 hours after dosing): 1620 ng/mL
- concentration at 1.5 h ([1]; male, human, plasma, 100 mg oral solution of [14C]eplerenone, 1.5 hours after dosing): 1590 ng/mL
- concentration at 2 h ([1]; male, human, plasma, 100 mg oral solution of [14C]eplerenone, 2.0 hours after dosing): 1420 ng/mL
- concentration at 2.5 h ([1]; male, human, plasma, 100 mg oral solution of [14C]eplerenone, 2.5 hours after dosing): 1260 ng/mL
- concentration at 3 h ([1]; male, human, plasma, 100 mg oral solution of [14C]eplerenone, 3.0 hours after dosing): 1180 ng/mL
- concentration at 4 h ([1]; male, human, plasma, 100 mg oral solution of [14C]eplerenone, 4.0 hours after dosing): 1000 ng/mL
- concentration at 6 h ([1]; male, human, plasma, 100 mg oral solution of [14C]eplerenone, 6.0 hours after dosing): 596 ng/mL
- concentration at 8 h ([1]; male, human, plasma, 100 mg oral solution of [14C]eplerenone, 8.0 hours after dosing): 391 ng/mL
- concentration at 12 h ([1]; male, human, plasma, 100 mg oral solution of [14C]eplerenone, 12.0 hours after dosing): 149 ng/mL
- concentration at 16 h ([1]; male, human, plasma, 100 mg oral solution of [14C]eplerenone, 16.0 hours after dosing): 68 ng/mL
- concentration at 24 h ([1]; male, human, plasma, 100 mg oral solution of [14C]eplerenone, 24.0 hours after dosing): 17.3 ng/mL
- concentration at 36 h ([1]; male, human, plasma, 100 mg oral solution of [14C]eplerenone, 36.0 hours after dosing): 0 ng/mL
- concentration at 48 h ([1]; male, human, plasma, 100 mg oral solution of [14C]eplerenone, 48.0 hours after dosing): 0 ng/mL
- concentration at 72 h ([1]; male, human, plasma, 100 mg oral solution of [14C]eplerenone, 72.0 hours after dosing): 0 ng/mL
- concentration at 96 h ([1]; male, human, plasma, 100 mg oral solution of [14C]eplerenone, 96.0 hours after dosing): 0 ng/mL
- concentration at -0.5 h ([1]; male, human, plasma, 100 mg oral solution of [14C]eplerenone, −0.5 hours after dosing): 0 ng/mL
- Cmax [1, 3]: 1720 ng/mL
- half-life [1, 3]: 3.8 h
- AUC(0-t) ([1]; male, human, plasma, 100 mg eplerenone oral solution, single dose, read-out: AUC(0-96)): 9540 ng·h/mL
- MRT ([1]; male, human, plasma, 100 mg eplerenone oral solution, single dose, read-out: Mean Residence Time): 4.8 h
- Tmax ([1]; male, human, plasma, 100 mg eplerenone oral solution, single dose, read-out: Tmax): 1.3 h
- Oral Clearance ([1]; plasma, 100 mg eplerenone oral solution, single dose): 11.4 L/h
- Plasma Concentration Of Eplerenone ([2]; 10 mg single oral dose): 0 ng/mL
- Plasma Concentration Of Eplerenone ([2]; 50 mg single oral dose): 0 ng/mL
- Plasma Concentration Of Eplerenone ([2]; 100 mg single oral dose): 0 ng/mL
- Plasma Concentration Of Eplerenone ([2]; 300 mg single oral dose): 0 ng/mL
- Plasma Concentration Of Eplerenone ([2]; 1000 mg single oral dose): 0 ng/mL
- Oral Clearance ([2]; 10 mg single oral dose): 13.3 L/h
- Oral Clearance ([2]; 50 mg single oral dose): 13.7 L/h
- Oral Clearance ([2]; 100 mg single oral dose): 13.1 L/h
- Oral Clearance ([2]; 300 mg single oral dose): 17.6 L/h
- Oral Clearance ([2]; 1000 mg single oral dose): 18.4 L/h
- concentration at 12 h ([2]; male, human, in vivo, po, 50 mg): 49.4 ng/mL
- AUC(0-t) ([2]; male, human, plasma, po, 10 mg): 942 ng·h/mL
- Cmax ([2]; male, human, plasma, po, 10 mg): 191 ng/mL
- MRT ([2]; male, human, plasma, po, 10 mg): 3.9 h
- Tmax ([2]; male, human, plasma, po, 10 mg): 1.3 h
- concentration at 0.5 h ([2]; male, human, plasma, po, 10 mg): 130 ng/mL
- concentration at 1 h ([2]; male, human, plasma, po, 10 mg): 177 ng/mL
- concentration at 2 h ([2]; male, human, plasma, po, 10 mg): 159 ng/mL
- concentration at 3 h ([2]; male, human, plasma, po, 10 mg): 125 ng/mL
- concentration at 4 h ([2]; male, human, plasma, po, 10 mg): 106 ng/mL
- concentration at 6 h ([2]; male, human, plasma, po, 10 mg): 65.3 ng/mL
- concentration at 8 h ([2]; male, human, plasma, po, 10 mg): 34.4 ng/mL
- concentration at 12 h ([2]; male, human, plasma, po, 10 mg): 6 ng/mL
- concentration at 16 h ([2]; male, human, plasma, po, 10 mg): 6 ng/mL
- concentration at 24 h ([2]; male, human, plasma, po, 10 mg): 1.7 ng/mL
- concentration at 28 h ([2]; male, human, plasma, po, 10 mg): 0 ng/mL
- concentration at 32 h ([2]; male, human, plasma, po, 10 mg): 0 ng/mL
- concentration at 48 h ([2]; male, human, plasma, po, 10 mg): 0 ng/mL
- concentration at 72 h ([2]; male, human, plasma, po, 10 mg): 0 ng/mL
- concentration at 96 h ([2]; male, human, plasma, po, 10 mg): 0 ng/mL
- half-life ([2]; male, human, plasma, po, 10 mg): 2.1 h
- AUC(0-t) ([2]; male, human, plasma, po, 50 mg): 4020 ng·h/mL
- Cmax ([2]; male, human, plasma, po, 50 mg): 797 ng/mL
- MRT ([2]; male, human, plasma, po, 50 mg): 4.2 h
- Tmax ([2]; male, human, plasma, po, 50 mg): 1.4 h
- concentration at 0.5 h ([2]; male, human, plasma, po, 50 mg): 552 ng/mL
- concentration at 1 h ([2]; male, human, plasma, po, 50 mg): 721 ng/mL
- concentration at 2 h ([2]; male, human, plasma, po, 50 mg): 693 ng/mL
- concentration at 3 h ([2]; male, human, plasma, po, 50 mg): 592 ng/mL
- concentration at 4 h ([2]; male, human, plasma, po, 50 mg): 457 ng/mL
- concentration at 6 h ([2]; male, human, plasma, po, 50 mg): 270 ng/mL
- concentration at 8 h ([2]; male, human, plasma, po, 50 mg): 146 ng/mL
- concentration at 16 h ([2]; male, human, plasma, po, 50 mg): 18.3 ng/mL
